# Test results from ChEMBL document CHEMBL4819137, “Huprine Y - Tryptophan heterodimers with potential implication to Alzheimer's disease treatment” (Bioorg Med Chem Lett, 2021).
# Assays:
# Nitric oxide synthase 1 [1] = target: T1, Nitric oxide synthase 1 (Homo sapiens, UniProt P29475)
# Description: Inhibition of recombinant human nNOS
# Nitric oxide synthase 1 [2] = target: T1, Nitric oxide synthase 1; remark: listed apart in the source
# Description: Inhibition of recombinant human nNOS
# Acetylcholinesterase [3] = target: T2, Acetylcholinesterase (Homo sapiens, UniProt P22303); assay: Non competitive type inhibition of human AChE assessed as inhibition constant using varying levels of acetylthiocholine as substrate by double reciprocal Lineweaver-Burk plot analysis
# T2 sequence (P22303 whole entry): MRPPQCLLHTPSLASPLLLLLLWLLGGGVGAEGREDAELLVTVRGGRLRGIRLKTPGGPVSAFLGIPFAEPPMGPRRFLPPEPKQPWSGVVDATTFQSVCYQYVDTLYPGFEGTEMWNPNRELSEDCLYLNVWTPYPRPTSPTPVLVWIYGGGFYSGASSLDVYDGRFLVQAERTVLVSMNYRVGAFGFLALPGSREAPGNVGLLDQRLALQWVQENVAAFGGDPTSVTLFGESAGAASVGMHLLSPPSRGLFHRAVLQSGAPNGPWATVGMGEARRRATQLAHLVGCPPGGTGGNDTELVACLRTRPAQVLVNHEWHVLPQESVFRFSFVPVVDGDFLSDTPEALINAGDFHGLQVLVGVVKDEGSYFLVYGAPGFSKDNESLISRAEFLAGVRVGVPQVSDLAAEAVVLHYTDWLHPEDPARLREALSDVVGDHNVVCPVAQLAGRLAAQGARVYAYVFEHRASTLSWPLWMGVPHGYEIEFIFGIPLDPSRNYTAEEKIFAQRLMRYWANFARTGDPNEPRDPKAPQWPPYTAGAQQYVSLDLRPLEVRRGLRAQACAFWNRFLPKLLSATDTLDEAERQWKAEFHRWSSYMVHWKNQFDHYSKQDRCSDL
# Acetylcholinesterase [4] = target: T2, Acetylcholinesterase
# Description: Inhibition of recombinant human AChE using acetylthiocholine as substrate by DTNB-reagent based Ellman's method
# Cholinesterase = Cholinesterase (Homo sapiens, UniProt P06276)
# Cholinesterase, sequence (P06276 whole entry): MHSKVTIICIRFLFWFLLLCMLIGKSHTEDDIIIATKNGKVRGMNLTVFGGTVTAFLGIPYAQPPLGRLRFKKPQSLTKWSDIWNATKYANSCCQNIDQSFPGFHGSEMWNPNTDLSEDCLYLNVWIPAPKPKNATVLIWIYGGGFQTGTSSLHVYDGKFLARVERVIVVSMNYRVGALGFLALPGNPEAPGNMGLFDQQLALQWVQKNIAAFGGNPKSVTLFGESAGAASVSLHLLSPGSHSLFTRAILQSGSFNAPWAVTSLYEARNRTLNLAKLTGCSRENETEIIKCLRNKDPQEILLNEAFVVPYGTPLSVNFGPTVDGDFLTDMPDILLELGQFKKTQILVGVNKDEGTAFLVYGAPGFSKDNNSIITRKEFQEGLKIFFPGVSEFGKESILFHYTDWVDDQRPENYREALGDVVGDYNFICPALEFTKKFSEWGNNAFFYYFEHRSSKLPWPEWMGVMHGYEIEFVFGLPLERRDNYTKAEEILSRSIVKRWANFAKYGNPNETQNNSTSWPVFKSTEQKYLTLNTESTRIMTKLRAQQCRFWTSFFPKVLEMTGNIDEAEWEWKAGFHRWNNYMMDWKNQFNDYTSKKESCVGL
# Description: Inhibition of recombinant human BuChE using butyrylthiocholine as substrate by Ellman's method
# HepG2 = assay: cells; conditions: Homo sapiens, HepG2, 24 h
# Description: Cytotoxicity against human HepG2 cells assessed as reduction in cell viability measured after 24 hrs by MTT assay
# T1 sequence (P29475 whole entry): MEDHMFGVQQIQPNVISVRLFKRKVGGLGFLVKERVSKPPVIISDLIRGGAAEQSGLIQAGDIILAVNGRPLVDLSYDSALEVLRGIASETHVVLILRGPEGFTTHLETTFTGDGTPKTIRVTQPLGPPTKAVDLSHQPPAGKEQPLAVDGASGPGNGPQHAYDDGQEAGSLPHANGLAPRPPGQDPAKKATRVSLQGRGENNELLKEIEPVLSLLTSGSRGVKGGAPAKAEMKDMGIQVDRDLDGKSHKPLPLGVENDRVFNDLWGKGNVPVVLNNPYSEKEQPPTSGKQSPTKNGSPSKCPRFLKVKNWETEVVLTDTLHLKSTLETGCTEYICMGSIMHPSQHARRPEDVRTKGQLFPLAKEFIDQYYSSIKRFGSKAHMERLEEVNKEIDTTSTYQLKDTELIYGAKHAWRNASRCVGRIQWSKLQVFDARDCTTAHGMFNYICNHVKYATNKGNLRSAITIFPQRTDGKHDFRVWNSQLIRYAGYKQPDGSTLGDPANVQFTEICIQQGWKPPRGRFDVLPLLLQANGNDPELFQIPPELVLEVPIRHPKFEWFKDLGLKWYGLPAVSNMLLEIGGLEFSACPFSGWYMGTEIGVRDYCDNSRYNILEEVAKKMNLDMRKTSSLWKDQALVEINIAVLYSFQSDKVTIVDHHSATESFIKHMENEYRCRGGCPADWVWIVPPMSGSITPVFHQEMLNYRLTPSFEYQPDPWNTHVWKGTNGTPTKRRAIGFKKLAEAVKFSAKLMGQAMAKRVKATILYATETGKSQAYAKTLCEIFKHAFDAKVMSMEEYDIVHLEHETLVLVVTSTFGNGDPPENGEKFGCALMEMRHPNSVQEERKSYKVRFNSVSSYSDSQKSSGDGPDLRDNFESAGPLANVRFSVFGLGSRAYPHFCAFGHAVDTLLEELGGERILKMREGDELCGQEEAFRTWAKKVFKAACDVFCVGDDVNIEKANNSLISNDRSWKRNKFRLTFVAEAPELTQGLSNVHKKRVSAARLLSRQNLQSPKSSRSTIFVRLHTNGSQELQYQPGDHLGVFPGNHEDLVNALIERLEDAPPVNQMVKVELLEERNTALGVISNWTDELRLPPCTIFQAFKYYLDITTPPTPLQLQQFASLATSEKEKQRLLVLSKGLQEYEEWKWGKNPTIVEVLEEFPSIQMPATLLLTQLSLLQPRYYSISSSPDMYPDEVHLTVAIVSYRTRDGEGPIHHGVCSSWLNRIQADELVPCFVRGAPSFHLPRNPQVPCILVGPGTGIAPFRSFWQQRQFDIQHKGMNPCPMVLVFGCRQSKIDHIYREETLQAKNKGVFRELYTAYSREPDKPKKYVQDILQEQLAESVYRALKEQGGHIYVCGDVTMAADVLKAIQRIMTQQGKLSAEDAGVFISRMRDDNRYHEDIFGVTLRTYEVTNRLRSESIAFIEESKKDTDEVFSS
IC50 (Nitric oxide synthase 1 [1]),SMILES,IC50 (Nitric oxide synthase 1 [2]),Ki (Acetylcholinesterase [3]),IC50 (Acetylcholinesterase [4]),IC50 (Cholinesterase),IC50 (HepG2)
Not Active,COc1ccc2nc3c(c(N)c2c1)CCCC3,,,,,
Not Active,Nc1c2c(nc3cc(Cl)ccc13)CCCC2,,,,,

# Further lines, the molecule ahead of its results:
SMILES,IC50 (Nitric oxide synthase 1 [1]),IC50 (Nitric oxide synthase 1 [2]),Ki (Acetylcholinesterase [3]),IC50 (Acetylcholinesterase [4]),IC50 (Cholinesterase),IC50 (HepG2)
N[C@@H](Cc1c[nH]c2ccccc12)C(=O)NCCCCCCNc1c2c(nc3cc(Cl)ccc13)CCCC2,,26 µM,,,,
CC1=CC2Cc3nc4cc(Cl)ccc4c(NCCCCCCNC(=O)[C@@H](N)Cc4c[nH]c5ccccc45)c3C(C1)C2 (some centres undefined),,18.5 µM,0.023 µM,0.0117 µM,0.0457 µM,5.63 µM
CC1=CC2Cc3nc4cc(Cl)ccc4c(NCCCCCNC(=O)[C@@H](N)Cc4c[nH]c5ccccc45)c3C(C1)C2 (some centres undefined),,24 µM,,0.0227 µM,0.0683 µM,4.77 µM
CC1=CC2Cc3nc4cc(Cl)ccc4c(NCCCCCCCNC(=O)[C@@H](N)Cc4c[nH]c5ccccc45)c3C(C1)C2 (some centres undefined),,35 µM,,0.0121 µM,0.0845 µM,12.3 µM
COc1ccc2nc3c(c(N)c2c1)C1CC(C)=CC(C3)C1 (racemic),,32 µM,,,,14.9 µM
CC1=CC2Cc3nc4cc(Cl)ccc4c(N)c3C(C1)C2 (racemic),,,,,,15.9 µM
